Source: patent US4910203A, “Pteridine compounds” (priority 1984, dated 1990)
Where two headings read alike, the source gives them in different places.

Key:
male Wistar rats [1] = experiment: Diuresis test with individual pteridine compounds, intravenous, urine after 2.5 hours; type: in vivo; conditions: 2.5 μmol/kg i.v.; for K^+ -excretion: control 0.609; for Na^+ -excretion: control 0.83; for Volume of urine: control 7.37
Method: They were orally given 20 ml/kg of an 0.9% NaCl solution just before the test substance was administered intravenously. […] Injection was into the caudal vein under light ether anasthesia. As a rule six test animals were used per test. […] Analysis was performed as for the determination of potency given above. IA stands for 2,4,7-triamino-6-[4-(2-hydroxy-3-dimethylaminopropoxy)phenyl]-pteridine.

male Wistar rats [2] = experiment: Diuresis test: ED50 dose response, intravenous, urine electrolytes after 2.5 hours; type: in vivo; conditions: for ED50: Rattus norvegicus, iv, urine collected after 2.5 hours
Method: For the tests, male Wistar rats of about 130 g body weight from which food had been withheld for 18 hours were used. […] Intravenous administration for determining K^+ was at dosage intervals for the actiee substance of 0.05, 0.1, 0.2, 0.3, 0.6, 1, and 2 mg/kg: for determining Na^+ at dosage intervals of 0.5, 1, 2, 4, 8, 16 and 20 mg/kg. For the prior art substances compared, the same tests were made and these substances were further administered at 30 mg/kg and 100 mg/kg. Injection was into the caudal vein under light etherization. […] Peroral administration was by means of a stomach tube into the gastrointestinal tract.
Dose response curves were constructed by the use of non-linear regression analysis using the NONLIN computer program of C. Daniel and F. S. Wood in "Fitting Equations to Data" (J. Wiley & Sons, New York, 1980).
The characteristic quantity ED50 (potency) used in determining the diuretic activity is defined as the amount of active substance per kilogram of body weight required to produce a response in 50 percent of the subjects.

male Wistar rats [3] = conditions: furosemide 8.27 mg/kg i.v. alone; 1.5 hours; mean; control 5.0
Method: They were orally given 20 ml/kg of an 0.9% NaCl solution just before the test substance was administered intravenously. […] Injection was into the caudal vein under light ether anasthesia. As a rule six test animals were used per test. The animals were individually placed into diuresis cages and the urine was collected after 1.5 hours. Analysis was performed as for the determination of potency given above. IA stands for 2,4,7-triamino-6-[4-(2-hydroxy-3-dimethylaminopropoxy)phenyl]-pteridine.

[4] = cited from earlier work
[5] = K^+ (potassium-sparing), read-out: ED50 K^+
[6] = Na^+ (natriuretic), read-out: ED50 Na^+

Row | SMILES | K^+ -excretion (male Wistar rats [1]) [mmol/kg] | Na^+ -excretion (male Wistar rats [1]) [mmol/kg] | Volume of urine (male Wistar rats [1]) [L/kg] | other results
1 | CCCCN(CCCC)CC(O)COc1ccc(-c2nc3c(N)nc(N)nc3nc2N)cc1 (centres unmarked) [IL, 2,4,7-Triamino-6-[4-(2-hydroxy-3-di-n-butylaminopropoxy)phenyl]-pteridine] | 0.191 | 2.34 | 0.01376 | 
2 | CCCCNCC(O)COc1ccc(-c2nc3c(N)nc(N)nc3nc2N)cc1 (centres unmarked) [IJ, 2,4,7-Triamino-6-[4-(2-hydroxy-3-n-butylaminopropoxy)phenyl]-pteridine] | 0.176 | 2.86 | 0.01859 | 
3 | CCNCC(O)COc1ccc(-c2nc3c(N)nc(N)nc3nc2N)cc1 (centres unmarked) [IB, 2,4,7-Triamino-6-[4-(2-hydroxy-3-ethylaminopropoxy)phenyl]-pteridine] | 0.161 | 2.98 | 0.01878 | 
4 | Nc1nc(N)c2nc(-c3ccccc3)c(N)nc2n1 [Triamterene, 2,4,7-triamino-6-phenyl-pteridine, reference compound] | 0.402 | 1.17 | 0.00796 | ED50 (male Wistar rats [2]; [5]): 1.87 µmol/kg; ED50 (male Wistar rats [2]; [6]): 4.4 µmol/kg
5 | CC(C)N(CC(O)COc1ccc(-c2nc3c(N)nc(N)nc3nc2N)cc1)C(C)C (centres unmarked) [IK, 2,4,7-Triamino-6-[4-(2-hydroxy-3-diisopropylaminopropoxy)phenyl]-pteridine] | 0.191 | 2.08 | 0.01024 | 
6 | NS(=O)(=O)c1cc(C(=O)O)c(NCc2ccco2)cc1Cl [Furosemide, 4-chloro-N-furfuryl-5-sulfamoylanthranilic acid] |  |  |  | Volume of urine (male Wistar rats [3]): 0.0525 L/kg
7 | CC(C)NCC(O)COc1ccc(-c2nc3c(N)nc(N)nc3nc2N)cc1 (centres unmarked) [IH, 2,4,7-Triamino-6-[4-(2-hydroxy-3-isopropylaminopropoxy)phenyl]-pteridine] | 0.161 | 2.49 | 0.01474 | 
8 | CCN(CC)CC(O)COc1ccc(-c2nc3c(N)nc(N)nc3nc2N)cc1 (centres unmarked) [IE, 2,4,7-Triamino-6-[4-(2-hydroxy-3-diethylaminopropoxy)phenyl]-pteridine] | 0.163 | 2.61 | 0.01102 | 
9 | Nc1nc(N)c2nc(-c3ccc(OCC(O)CN4CCCCC4)cc3)c(N)nc2n1 (centres unmarked) [IF, 2,4,7-Triamino-6-[4-(2-hydroxy-3-piperidinopropoxy)phenyl]-pteridine] | 0.191 | 1.95 | 0.01017 | 
10 | Nc1nc(N)c2nc(-c3ccc(OCC(O)CN4CCCC4)cc3)c(N)nc2n1 (centres unmarked) [IG, 2,4,7-Triamino-6-[4-(2-hydroxy-3-pyrrolidinopropoxy)phenyl]-pteridine] | 0.172 | 2.14 | 0.0133 | 
11 | CNCC(O)COc1ccc(-c2nc3c(N)nc(N)nc3nc2N)cc1 (centres unmarked) [IC, 2,4,7-Triamino-6-[4-(2-hydroxy-3-methylaminopropoxy)phenyl]-pteridine] | 0.211 | 2.63 | 0.01585 | 
12 | CN(C)CCCOc1ccc(-c2nc3c(N)nc(N)nc3nc2N)cc1 [DES-OH, 2,4,7-triamino-6-[4-(3-dimethylaminopropoxy)phenyl]-pteridine, reference compound] |  |  |  | ED50 (male Wistar rats [2]; [5]): 0.54 µmol/kg; ED50 (male Wistar rats [2]; [6]): 5.53 µmol/kg
13 | Nc1nc(N)c2nc(-c3ccc(OCC(O)CN4CCOCC4)cc3)c(N)nc2n1 (centres unmarked) [ID, 2,4,7-Triamino-6-[4-(2-hydroxy-5-morpholinopropoxy)phenyl]-pteridine] | 0.237 | 2.78 | 0.0193 | 
14 | Nc1nc(N)c2nc(-c3ccc(OCCCCC(=O)O)cc3)c(N)nc2n1 [Val-O-TA, 2,4,7-triamino-6-[4-(4-carboxybutoxy)phenyl]-pteridine] |  |  |  | diuretic, natriuretic, and antikaliuretic activity ([4]; administered intravenously): exhibit diuretic, natriuretic, and antikaliuretic activity; compensation of kaliuresis produced by furosemide ([4]; with Val-O-TA): compensated practically fully
15 | CN(C)CC(O)COc1ccc(-c2nc3c(N)nc(N)nc3nc2N)cc1 (centres unmarked) [IA, 2,4,7-triamino-6-[4-(2-hydroxy-3-dimethylaminopropoxy)phenyl]-pteridine] | 0.180 | 2.78 | 0.01598 | ED50 (male Wistar rats [2]; [5]): 0.24 µmol/kg; ED50 (male Wistar rats [2]; Mg^+2 (magnesium-sparing), read-out: ED50 Mg^+2): 0.4 µmol/kg; ED50 (male Wistar rats [2]; [6]): 9.36 µmol/kg; diuretic efficacy (natriuretic, potassium- and magnesium-sparing properties) (male Wistar rats [2]; i.v.): outstanding diuretic efficacy
